Data reported in publication PMC11134350, “Substrate Promiscuity of Thermoplasma acidophilum Malic Enzyme for CO2 Fixation Reaction” (JACS Au, 2024).
Read-outs that look alike come from different tables or passages of the source.

Test system: T1, TaME (Thermoplasma acidophilum NADP+-malic enzyme)
T1 construct: dimer (from structural model); Asn304 and Thr46* named at active site
Assay: NADPH formation, oxidative decarboxylation, Michaelis-Menten
Type: biochemical
Details: NADP+ as cofactor, standard assay conditions in supplement section 1.3.1, read-out: Km(substrate)
Description: NADPH formation, oxidative decarboxylation, Michaelis-Menten on TaME (Thermoplasma acidophilum NADP+-malic enzyme)

Row | Km (0.03-0.60 mM isocitrate) | Km (0.05-1.0 mM malate) | SMILES
1 | 23.7 ± 5.2 µM |  | O=C(O)C[C@H](C(=O)O)[C@@H](O)C(=O)O [2b, Isocitrate]
2 |  | 879 ± 149 µM | O=C(O)C[C@H](O)C(=O)O [1b, Malate]
